Literature values, collected in patent US20040213782A1, “Compositions of an aquaporin modulating agent and an aqueous humor modulating agent for the treatment of elevated intraocular pressure” (Pharmacia Corporation, priority 2003, published 2004).

Columns and labels:
[1] = system: AQP2; conditions: kidney of cardiomyopathic hamsters; Wong and Tsui (2002)
[2] = system: AQP1; conditions: epididymis of rats; Yu et al. (2002)
[3] = among corticosteroids; ophthalmic or systemic administration

Compound | expression of AQP2 [1] | further results
angiotensin II (DRVYIHPF; Angiotensin-2; UniProt P01019 25-32, looked up) [peptide that increases the expression of AQP2 in the kidney of cardiomyopathic hamsters] | increases | 
CC(=O)Nc1nnc(S(N)(=O)=O)s1 [acetazolamide] |  | level of AQP1 expression [2]: significant decrease
CCOC(=O)[C@H](CCc1ccccc1)N[C@@H](C)C(=O)N1CCC[C@H]1C(=O)O [enalapril] | significant decrease | 
C[C@@H]1C[C@H]2[C@@H]3CCC4=CC(=O)C=C[C@]4(C)[C@@]3(F)[C@@H](O)C[C@]2(C)[C@@]1(O)C(=O)CO [dexamethasone] |  | increase in intraocular pressure [3]: most pronounced increase
